Series [1] deals with recombinant NL4-3 virus (nef section replaced with Renilla luciferase gene) in MT-2 cells. The experiment in a line: HIV cell culture assay (antiviral activity, luciferase readout). It is filed as cell-based. To be noted: MT-2 cells infected for 4-5 days with recombinant NL4-3 luciferase virus. The method in brief: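 Serially diluted compounds were present throughout a 4-5 day infection of MT-2 cells by recombinant NL4-3 whose nef region partly encodes Renilla luciferase. Antiviral activity was taken from live-cell luciferase signal, with the 50% effective concentration fitted by the exponential median effect equation.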

Series [2] can be described thus: Compound cytotoxicity, XTT-based colorimetric assay. The format is cell-based. The conditions noted are these: human, uninfected MT2 cells. The method in brief: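 XTT colorimetric read-out on day 4 gave CC50 values, using MT2 cells left uninfected but otherwise handled as in the antiviral assay.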

This is an account of results in patent publication US10954252B1, “Inhibitors of human immunodeficiency virus replication” (ViiV HEALTHCARE UK (NO.5) LIMITED, priority 2017, dated 2021).

Molecules are shown by their SMILES.

Take `Cn1nc(NS(C)(=O)=O)c2c(Cl)ccc(-n3c([C@H](Cc4cc(F)cc(F)c4)NC(=O)Cc4c[nH]c5ccc(F)cc45)nc4ncccc4c3=O)c21` [Example 51, N-[(1S)-1-[3-(4-chloro-3-methanesulfonamido-1-methyl-1H-indazol-7-yl)-4-oxo-3H,4H-pyrido[2,3-d]pyrimidin-2-yl]-2-(3,5-difluorophenyl)ethyl]-2-(5-fluoro-1H-indol-3-yl)acetamide]: the EC50 (usually the concentration at which the effect is half-maximal) in series [1] (Renilla, NL43, Table 1a) is 1.04 nM. Further, the CC50 (usually the concentration at which the toxic effect on the cells reaches its halfway point) at 4 days in series [2] (Table 1a, day 4, XTT) is greater than 1000 nM.

For `CCOc1ccc2c(=O)n(-c3ccc(Cl)c4c(NS(C)(=O)=O)nn(C)c34)c([C@H](Cc3cc(F)cc(F)c3)NC(=O)Cn3ccc(C4CC4)n3)nc2n1` (single isomer, unassigned) [Example 59.1], the half-maximal effective concentration (EC50) in series [1] (Renilla, NL43, Table 1a) turned out to be 47 nM. Also, in series [2] (Table 1a, day 4, XTT), the cytotoxic concentration (CC50) at 4 days was greater than 1000 nM.

As to `N#Cc1ccc(-c2cc3[nH]ncc3nc2[C@H](Cc2cc(F)cc(F)c2)NC(=O)Cn2nc(C(F)F)c3c2C(F)(F)[C@@H]2C[C@H]32)cc1` [Example 10.5, N—((S)-1-(6-(4-cyanophenyl)-1H-pyrazolo[4,3-b]pyridin-5-yl)-2-(3,5-difluorophenyl)ethyl)-2-((3bS,4aR)-3-(difluoromethyl)-5,5-difluoro-3b,4,4a,5-tetrahydro-1H-cyclopropa[3,4]cyclopenta[1,2-c]pyrazol-1-yl)acetamide], the concentration for a half-maximal effect (EC50) in series [1] (Renilla, NL43, Table 1) turned out to be 300 nM. Also, the CC50 at 4 days in series [2] (Table 1, day 4, XTT) amounted to 9350 nM.

Consider `Cn1nc(NS(C)(=O)=O)c2c(Cl)ccc(-n3c([C@H](Cc4cc(F)cc(F)c4)NC(=O)Cc4n[nH]c5ccc(O)cc45)nc4ncccc4c3=O)c21` (single isomer, unassigned) [Example 49.1], for which, in series [1] (Renilla, NL43, Table 1a), the EC50 was 93 nM. In series [2] (Table 1a, day 4, XTT), this compound displayed a CC50 at 4 days greater than 1000 nM.

On to `Cn1nc(NS(C)(=O)=O)c2c(Cl)ccc(-c3cc4sc(N)nc4nc3C(Cc3cc(F)cc(F)c3)NC(=O)Cn3nc(C(F)F)c4c3C(F)(F)[C@@H]3C[C@H]43)c21` (mixture of isomers) [Example 194, N-(1-(2-amino-6-(4-chloro-1-methyl-3-(methylsulfonamido)-1H-indazol-7-yl)thiazolo[4,5-b]pyridin-5-yl)-2-(3,5-difluorophenyl)ethyl)-2-((3bS,4aR)-3-(difluoromethyl)-5,5-difluoro-3b,4,4a,5-tetrahydro-1H-cyclopropa[3,4]cyclopenta[1,2-c]pyrazol-1-yl)acetamide], for which, in series [1] (Renilla, NL43, Table 1a), the EC50 is 1.9 nM. Also, in series [2] (Table 1a, day 4, XTT), the 50% cytotoxic concentration (CC50) at 4 days was greater than 10000 nM.

With `O=C(Cn1nc(C(F)F)c2c1C(F)(F)[C@@H]1C[C@H]21)N[C@@H](Cc1cc(F)cc(F)c1)c1nc2cn[nH]c2cc1-c1ccc(Cl)c(C(=O)NS(=O)(=O)C2CC2)c1` [Example 10.16, 2-Chloro-N-(cyclopropylsulfonyl)-5-(5-((S)-1-(2-((3bS,4aR)-3-(difluoromethyl)-5,5-difluoro-3b,4,4a,5-tetrahydro-1H-cyclopropa[3,4]cyclopenta[1,2-c]pyrazol-1-yl)acetamido)-2-(3,5-difluorophenyl)ethyl)-1H-pyrazolo[4,3-b]pyridin-6-yl)benzamide], the 50% effective concentration (EC50) in series [1] (Renilla, NL43, Table 1) stood at 340 nM. For the same compound, in series [2] (Table 1, day 4, XTT), the CC50 at 4 days was greater than 10000 nM.

On to `Cn1nc(NS(C)(=O)=O)c2c(Cl)ccc(-c3cc4ccccc4nc3C(Cc3cc(F)cc(F)c3)NC(=O)Cn3nc(C(F)F)c4c3C(F)(F)[C@@H]3C[C@H]43)c21` (single isomer, unassigned) [Example 8.1], for which, in series [1] (Table 1), the 50% effective concentration (EC50) is 0.2 nM. For the same compound, the CC50 at 4 days in series [2] (Table 1, day 4, XTT) is greater than 10000 nM.

Consider `Cn1nc(NS(C)(=O)=O)c2c(Cl)ccc(-n3c([C@H](Cc4cc(F)cc(F)c4)NC(=O)Cn4nc(C(F)F)c5c4C(F)(F)[C@@H]4C[C@H]54)nc4cccc(C(F)(F)F)c4c3=O)c21` (single isomer, unassigned) [Example 127], for which the EC50 in series [1] (Table 1a) was found to be 379 nM. The compound further had a cytotoxic concentration (CC50) at 4 days in series [2] (Table 1a, day 4, XTT) greater than 1000 nM.

On to `O=C(Cn1nc(C(F)F)c2c1C(F)(F)[C@@H]1C[C@H]21)N[C@@H](Cc1cc(F)cc(F)c1)c1nc2ccccc2nc1-c1ccc(S(=O)(=O)N2CCOCC2)cc1` [Example 156, 2-((3bS,4aR)-3-(difluoromethyl)-5,5-difluoro-3b,4,4a,5-tetrahydro-1H-cyclopropa[3,4]cyclopenta[1,2-c]pyrazol-1-yl)-N—((S)-2-(3,5-difluorophenyl)-1-(3-(4-(morpholinosulfonyl)phenyl)quinoxalin-2-yl)ethyl)acetamide], for which, in series [1] (Renilla, NL43, Table 1a), the EC50 amounted to 16.4 nM. In series [2] (Table 1a, day 4, XTT), this compound came in with a cytotoxic concentration (CC50) at 4 days greater than 10000 nM.

On to `COc1cc(F)c2c(=O)n(-c3ccc(Cl)c4c(NS(C)(=O)=O)nn(C)c34)c([C@H](Cc3cc(F)cc(F)c3)NC(=O)Cn3nc(C(F)F)c4c3C(F)(F)[C@@H]3C[C@H]43)nc2c1` (single isomer, unassigned) [Example 186], for which the concentration giving a half-maximal response (EC50) in series [1] (Table 1a) was found to be 0.072 nM. For the same compound, in series [2] (Table 1a, day 4, XTT), the CC50 at 4 days was greater than 1000 nM.

With `Cn1nc(NS(C)(=O)=O)c2c(Cl)ccc(-c3cc4cc[nH]c4nc3[C@@H](Cc3cc(F)cc(F)c3)NC(=O)Cn3nc(C(F)F)c4c3C(F)(F)[C@@H]3C[C@H]43)c21` (single isomer, unassigned) [Example 87], the EC50 in series [1] (Renilla, NL43, Table 1a) worked out at 72.4 nM. For the same compound, the CC50 at 4 days in series [2] (Table 1a, day 4, XTT) is greater than 10000 nM.

On to `CCOc1ccc2c(=O)n(-c3ccc(Cl)c4c(NS(C)(=O)=O)nn(C)c34)c(C(Cc3cc(F)cc(F)c3)NC(=O)Cn3nc(C(F)F)c4c3C(F)(F)[C@@H]3C[C@H]43)nc2n1` (mixture of isomers) [Example 60.1], for which, in series [1] (Renilla, NL43, Table 1a), the EC50 came out at 0.397 nM. In series [2] (Table 1a, day 4, XTT), this compound gave a CC50 at 4 days greater than 1000 nM.

Turning to `O=C(Cc1c[nH]c2ccc(O)cc12)N[C@@H](Cc1cc(F)cc(F)c1)c1nc2ccccc2c(=O)n1-c1ccc(S(=O)(=O)N2CCOCC2)cc1` [Example 164, (S)—N-(2-(3,5-difluorophenyl)-1-(3-(4-(morpholinosulfonyl)phenyl)-4-oxo-3,4-dihydroquinazolin-2-yl)ethyl)-2-(5-hydroxy-1H-indol-3-yl)acetamideacetamide], in series [1] (Renilla, NL43, Table 1a), the EC50 turned out to be 1.17 nM. In series [2] (Table 1a, day 4, XTT), the half-maximal cytotoxic concentration (CC50) at 4 days was greater than 10000 nM.

On to `CC(C)(C)c1ccc2c(=O)n(-c3ccc(Cl)c4c(NS(C)(=O)=O)nn(CC(F)F)c34)c([C@H](Cc3cc(F)cc(F)c3)NC(=O)Cn3nc(C(F)F)c4c3C(F)(F)[C@@H]3C[C@H]43)nc2c1` [Example 217, N—((S)-1-(7-(tert-Butyl)-3-(4-chloro-1-(2,2-difluoroethyl)-3-(methylsulfonamido)-1H-indazol-7-yl)-4-oxo-3,4-dihydroquinazolin-2-yl)-2-(3,5-difluorophenyl)ethyl)-2-((3bS,4aR)-3-(difluoromethyl)-5,5-difluoro-3b,4,4a,5-tetrahydro-1H-cyclopropa[3,4]cyclopenta[1,2c]pyrazol-1-yl)acetamide], for which the 50% effective concentration (EC50) in series [1] (Renilla, NL43, Table 1a) is 0.25 nM. In addition, the CC50 at 4 days in series [2] (Table 1a, day 4, XTT) was greater than 1000 nM.

As for `CS(=O)(=O)NC(=O)c1cc(-c2cc3[nH]ncc3nc2[C@H](Cc2cc(F)cc(F)c2)NC(=O)Cn2nc(C(F)F)c3c2C(F)(F)[C@@H]2C[C@H]32)ccc1F` [Example 10.26, 5-(5-((S)-1-(2-((3bS,4aR)-3-(difluoromethyl)-5,5-difluoro-3b,4,4a,5-tetrahydro-1H-cyclopropa[3,4]cyclopenta[1,2-c]pyrazol-1-yl)acetamido)-2-(3,5-difluorophenyl)ethyl)-1H-pyrazolo[4,3-b]pyridin-6-yl)-2-fluoro-N-(methylsulfonyl)benzamide], the EC50 in series [1] (Renilla, NL43, Table 1) amounted to 930 nM. For the same compound, the CC50 at 4 days in series [2] (Table 1, day 4, XTT) was greater than 10000 nM.

For the compound `Cn1ccc2nc([C@@H](Cc3cc(F)cc(F)c3)NC(=O)Cn3nc(C(F)F)c4c3C(F)(F)[C@@H]3C[C@H]43)c(-c3ccc(Cl)c4c(NS(C)(=O)=O)nn(C)c34)cc21` (single isomer, unassigned) [Example 121], the 50% effective concentration (EC50) in series [1] (Renilla, NL43, Table 1a) is 171 nM. For the same compound, the half-maximal cytotoxic concentration (CC50) at 4 days in series [2] (Table 1a, day 4, XTT) was greater than 10000 nM.

`Cn1nc(NS(C)(=O)=O)c2c(Cl)ccc(-n3c([C@H](Cc4cc(F)cc(F)c4)NC(=O)Cn4nc(C(F)F)c5c4C(F)(F)[C@@H]4C[C@H]54)nc4cc(F)ccc4c3=O)c21` [Example 18, N—((S)-1-(3-(4-chloro-1-methyl-3-(methylsulfonamido)-1H-indazol-7-yl)-7-fluoro-4-oxo-3,4-dihydroquinazolin-2-yl)-2-(3,5-difluorophenyl)ethyl)-2-((3bS,4aR)-3-(difluoromethyl)-5,5-difluoro-3b,4,4a,5-tetrahydro-1H-cyclopropa[3,4]cyclopenta[1,2-c]pyrazol-1-yl)acetamide]: the EC50 in series [1] (Renilla, NL43, Table 1) came to 36 nM. Further, the half-maximal cytotoxic concentration (CC50) at 4 days in series [2] (Table 1, day 4, XTT) is greater than 10000 nM.

As to `CN1Cc2ccc(-c3cc4[nH]ncc4nc3[C@H](Cc3cc(F)cc(F)c3)NC(=O)Cn3nc(C(F)F)c4c3C(F)(F)[C@@H]3C[C@H]43)cc2C1=O` [Example 23, 2-((3bS,4aR)-3-(difluoromethyl)-5,5-difluoro-3b,4,4a,5-tetrahydro-1H-cyclopropa[3,4]cyclopenta[1,2-c]pyrazol-1-yl)-N—((S)-2-(3,5-difluorophenyl)-1-(6-(2-methyl-3-oxoisoindolin-5-yl)-1H-pyrazolo[4,3-b]pyridin-5-yl)ethyl)acetamide], the 50% effective concentration (EC50) in series [1] (Renilla, NL43, Table 1a) is 21.8 nM. Besides, it took 10000 nM to reach half-maximal cytotoxicity in series [2] (Table 1a, day 4, XTT) (CC50 at 4 days).

With `NS(=O)(=O)c1ccc(-c2cc3[nH]ncc3nc2[C@H](Cc2cc(F)cc(F)c2)NC(=O)Cn2nc(C(F)F)c3c2C(F)(F)[C@@H]2C[C@H]32)cc1` [Example 24, 2-((3bS,4aR)-3-(difluoromethyl)-5,5-difluoro-3b,4,4a,5-tetrahydro-1H-cyclopropa[3,4]cyclopenta[1,2-c]pyrazol-1-yl)-N—((S)-2-(3,5-difluorophenyl)-1-(6-(4-sulfamoylphenyl)-1H-pyrazolo[4,3-b]pyridin-5-yl)ethyl)acetamide], the concentration for a half-maximal effect (EC50) in series [1] (Renilla, NL43, Table 1a) stood at 1370 nM. The compound further yielded a half-maximal cytotoxic concentration (CC50) at 4 days in series [2] (Table 1a, day 4, XTT) greater than 10000 nM.

Regarding `Cn1nc(NS(C)(=O)=O)c2c(Cl)ccc(-n3c([C@H](Cc4cc(F)cc(F)c4)NC(=O)Cn4nc(C(F)F)c5c4C(F)(F)[C@@H]4C[C@H]54)nc4cccc(F)c4c3=O)c21` (single isomer, unassigned) [Example 19], the EC50 in series [1] (Renilla, NL43, Table 1) was 130 nM. The CC50 at 4 days in series [2] (Table 1, day 4, XTT) is greater than 8000 nM.
